Measurements from ChEMBL document CHEMBL1201862, “PubChem BioAssay data set” (2004).
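Grown in 96-well plates, cells were treated for 48 hours with each compound at five concentrations. Insufficient inhibition: endpoint recorded as highest concentration tested. GI50 marks 50% less growth.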 Activity calls are given as the source filed them. Rule as the data show it: active = GI50 up to about 1.1 µM and inactive = higher.

Assays:
Experiment in all cases: NCI anticancer screen, dose series, 48 h
[1] = system: ACHN
[2] = system: BT-549
[3] = system: DU-145
[4] = system: HCC 2998
[5] = system: HCT-116
[6] = system: HL-60
[7] = system: HOP-92
[8] = system: Hs-578T
[9] = system: IGROV-1
[10] = system: KM12
[11] = system: MOLT-4
[12] = system: Malme-3M
[13] = system: RPMI-8226
[14] = system: SF-295
[15] = system: T47D
[16] = system: UACC-257
[17] = system: UACC-62
[18] = system: UO-31
[19] = system: NCI-H522

Compound	GI50 [1]	GI50 [2]	GI50 [3]	GI50 [4]	GI50 [5]	GI50 [6]	GI50 [7]	GI50 [8]	GI50 [9]	GI50 [10]	GI50 [11]	GI50 [12]	GI50 [13]	GI50 [14]	GI50 [15]	GI50 [16]	GI50 [17]	GI50 [18]	GI50 [19]
COc1ccc(/C=C2\CCc3cc(OC)c(OC)cc3C2=O)cc1	> 10 µM (inactive)	> 10 µM (inactive)	> 10 µM (inactive)	> 10 µM (inactive)	> 10 µM (inactive)	9.25 µM (inactive)	> 10 µM (inactive)	> 10 µM (inactive)	> 10 µM (inactive)	> 10 µM (inactive)	> 10 µM (inactive)	> 10 µM (inactive)	> 10 µM (inactive)	> 10 µM (inactive)	> 10 µM (inactive)	> 10 µM (inactive)	> 10 µM (inactive)	> 10 µM (inactive)	–
CCCCCCCCCCCCCCCCCCOc1ccc(/C=C/C2=[N+](CCCl)CCO2)cc1	> 100 µM (inactive)	> 100 µM (inactive)	> 100 µM (inactive)	–	> 100 µM (inactive)	53.3 µM (inactive)	> 100 µM (inactive)	> 100 µM (inactive)	67.6 µM (inactive)	> 100 µM (inactive)	> 100 µM (inactive)	> 100 µM (inactive)	> 100 µM (inactive)	> 100 µM (inactive)	> 100 µM (inactive)	> 100 µM (inactive)	> 100 µM (inactive)	> 100 µM (inactive)	0.796 µM (active)
ClC1(c2ccccc2)c2ccc(Br)cc2-c2cc(Br)ccc21	16.1 µM (inactive)	17.2 µM (inactive)	22.6 µM (inactive)	19.7 µM (inactive)	14.9 µM (inactive)	19.3 µM (inactive)	15.6 µM (inactive)	19.9 µM (inactive)	16.2 µM (inactive)	19.4 µM (inactive)	32.5 µM (inactive)	17 µM (inactive)	28.7 µM (inactive)	17.9 µM (inactive)	19.7 µM (inactive)	18.3 µM (inactive)	–	15.5 µM (inactive)	14.2 µM (inactive)
COc1ccc2c(c1)-c1[nH]c3ccccc3c1CC2	18.1 µM (inactive)	17.2 µM (inactive)	17.9 µM (inactive)	10.2 µM (inactive)	16.9 µM (inactive)	–	17.1 µM (inactive)	15.4 µM (inactive)	3.9 µM (inactive)	13.6 µM (inactive)	12.1 µM (inactive)	12.4 µM (inactive)	20.4 µM (inactive)	14.2 µM (inactive)	13.5 µM (inactive)	16.3 µM (inactive)	15.6 µM (inactive)	15.5 µM (inactive)	6.31 µM (inactive)
O=CC(O)C(O)C(O)C(O)COC(=O)NCCCCC(=O)C(F)(F)C(F)(F)C(F)(F)C(F)(F)C(F)(F)C(F)(F)C(F)(F)F (configuration not stated)	30.2 µM (inactive)	16.1 µM (inactive)	47.6 µM (inactive)	24.5 µM (inactive)	18 µM (inactive)	27.4 µM (inactive)	13.2 µM (inactive)	22.4 µM (inactive)	29.7 µM (inactive)	19.1 µM (inactive)	10.7 µM (inactive)	> 100 µM (inactive)	29.9 µM (inactive)	23.2 µM (inactive)	> 100 µM (inactive)	> 10 µM (inactive)	15.9 µM (inactive)	> 100 µM (inactive)	–
N=C(N)NCC[C@H](NC(=O)OCCCCCn1ccc(=O)[nH]c1=O)C(=O)O	> 100 µM (inactive)	> 100 µM (inactive)	> 100 µM (inactive)	> 100 µM (inactive)	> 100 µM (inactive)	> 100 µM (inactive)	> 100 µM (inactive)	> 100 µM (inactive)	–	> 100 µM (inactive)	> 100 µM (inactive)	> 100 µM (inactive)	> 100 µM (inactive)	> 100 µM (inactive)	> 100 µM (inactive)	> 100 µM (inactive)	> 100 µM (inactive)	> 100 µM (inactive)	–
C#CCCCCC#Cc1ccccc1C(=O)C=[N+]=[N-]	> 100 µM (inactive)	> 100 µM (inactive)	> 100 µM (inactive)	> 100 µM (inactive)	> 100 µM (inactive)	–	> 100 µM (inactive)	> 100 µM (inactive)	> 100 µM (inactive)	–	> 100 µM (inactive)	–	16.5 µM (inactive)	> 100 µM (inactive)	> 100 µM (inactive)	> 100 µM (inactive)	> 100 µM (inactive)	> 100 µM (inactive)	> 100 µM (inactive)
Brc1ccc(CCNCCN2CCCCC2)cc1	20.6 µM (inactive)	15.7 µM (inactive)	35.6 µM (inactive)	14.5 µM (inactive)	12.1 µM (inactive)	33 µM (inactive)	10.8 µM (inactive)	20.3 µM (inactive)	17.1 µM (inactive)	16.6 µM (inactive)	62.1 µM (inactive)	17.7 µM (inactive)	37.7 µM (inactive)	18.3 µM (inactive)	15.6 µM (inactive)	14.8 µM (inactive)	–	12.2 µM (inactive)	16.4 µM (inactive)
CCOC(=O)c1ccc(-c2onc(C)c2Br)[nH]1	37.6 µM (inactive)	34.7 µM (inactive)	55.3 µM (inactive)	> 100 µM (inactive)	30.1 µM (inactive)	–	23 µM (inactive)	70.5 µM (inactive)	22.7 µM (inactive)	74 µM (inactive)	> 100 µM (inactive)	79.6 µM (inactive)	86.7 µM (inactive)	39.5 µM (inactive)	30 µM (inactive)	47.2 µM (inactive)	56 µM (inactive)	32.7 µM (inactive)	51.9 µM (inactive)
Cc1[nH]n(-c2nc(O)c(-c3ccccc3)c(=O)[nH]2)c(=O)c1CCO	> 100 µM (inactive)	> 100 µM (inactive)	> 100 µM (inactive)	–	> 100 µM (inactive)	> 100 µM (inactive)	> 100 µM (inactive)	> 100 µM (inactive)	> 100 µM (inactive)	> 100 µM (inactive)	> 100 µM (inactive)	> 100 µM (inactive)	> 100 µM (inactive)	> 100 µM (inactive)	> 100 µM (inactive)	> 100 µM (inactive)	> 100 µM (inactive)	> 100 µM (inactive)	> 100 µM (inactive)
COc1cccc(N2C(=O)C3c4[nH]c5ccccc5c4C4CCCC4C3C2=O)c1 (configuration not stated)	5.93 µM (inactive)	> 10 µM (inactive)	> 10 µM (inactive)	> 10 µM (inactive)	2.87 µM (inactive)	> 10 µM (inactive)	3.59 µM (inactive)	3.61 µM (inactive)	6.71 µM (inactive)	> 10 µM (inactive)	> 10 µM (inactive)	2.78 µM (inactive)	> 10 µM (inactive)	> 10 µM (inactive)	> 10 µM (inactive)	> 10 µM (inactive)	> 10 µM (inactive)	–	> 10 µM (inactive)
COc1ccc2oc3c(C)cc4c(OC)nnc(OC)c4c3c2c1	5.05 µM (inactive)	> 100 µM (inactive)	> 100 µM (inactive)	16.7 µM (inactive)	2.17 µM (inactive)	13.5 µM (inactive)	10.9 µM (inactive)	31 µM (inactive)	–	27.4 µM (inactive)	2.81 µM (inactive)	9.95 µM (inactive)	4.93 µM (inactive)	8.51 µM (inactive)	29.9 µM (inactive)	42 µM (inactive)	9.31 µM (inactive)	6.93 µM (inactive)	6.76 µM (inactive)
COc1ccc(/C=C/C(=O)NCC(NC(=O)/C=C/c2ccc(OC)c(OC)c2)C(=O)O)cc1OC (configuration not stated)	> 100 µM (inactive)	> 100 µM (inactive)	> 100 µM (inactive)	> 100 µM (inactive)	> 100 µM (inactive)	–	0.0163 µM (active)	> 100 µM (inactive)	< 0.01 µM (active)	> 100 µM (inactive)	> 100 µM (inactive)	> 100 µM (inactive)	> 100 µM (inactive)	> 100 µM (inactive)	> 100 µM (inactive)	> 100 µM (inactive)	> 100 µM (inactive)	> 100 µM (inactive)	> 100 µM (inactive)
CC(C(=O)NCNC(=O)c1ccccc1)C(=O)Nc1ccccc1 (configuration not stated)	> 100 µM (inactive)	> 100 µM (inactive)	> 100 µM (inactive)	–	> 100 µM (inactive)	> 100 µM (inactive)	> 100 µM (inactive)	> 100 µM (inactive)	> 100 µM (inactive)	> 100 µM (inactive)	> 10 µM (inactive)	> 100 µM (inactive)	> 100 µM (inactive)	> 100 µM (inactive)	> 100 µM (inactive)	> 100 µM (inactive)	> 100 µM (inactive)	> 100 µM (inactive)	> 100 µM (inactive)
Cc1c2cccc-2ccc2c1[nH]c1ccccc12	1.77 µM (inactive)	3.24 µM (inactive)	4.55 µM (inactive)	–	2.12 µM (inactive)	3.1 µM (inactive)	2.83 µM (inactive)	2.34 µM (inactive)	2 µM (inactive)	2.34 µM (inactive)	3.57 µM (inactive)	1.89 µM (inactive)	2.43 µM (inactive)	2.38 µM (inactive)	2.54 µM (inactive)	1.68 µM (inactive)	1.91 µM (inactive)	1.63 µM (inactive)	1.93 µM (inactive)
